Experimental data published in patent publication US20200289434A1, “RAPIDLY IMPROVING ENDOTHELIAL FUNCTION, REDUCING ARTERIAL STIFFNESS AND REVERSING CALCIFICATION OF BLOOD VESSELS BY ADMINISTERING VITAMIN K” (KAYDENCE PHARMA AS, priority 2019, published 2020).
Values joined by “and” are separate entries in the source; they are usually repeats but may differ in a detail not shown here. Identical values can stand only once.

Test system: ApoE/LDLR−/− mice
Assay: Example 2: MRI-based assessment of NO-dependent vasodilatation in BCA and LCA after acetylcholine
Format: in vivo
Details: two months, 6-month old mice
Description: Endpoint assays: Magnetic resonance imaging (MRI)-based assessment of nitric oxide (NO)-dependent vasodilatation in brachiocephalic (BCA) and left common carotid artery (LCA) after acetylcholine (Ach) administration—by MRI 9.4T scanner, total time of measurements: 114 h (1.5 h per animal), acetylcholine (Ach, 16.6 mg/kg b.w.)
Studies were performed on 4-month old female ApoE/LDLR−/− mice, the model initially described by Ishibashi S, Herz J, Maeda N, Goldstein J, Brown M. The two-receptor model of lipoprotein clearance: tests of the hypothesis in “knockout” mice lacking the low density lipoprotein receptor, apolipoprotein E, or both proteins. Proc Natl Acad Sci USA 1994; 10:4431-5., and extensively characterized in previous studies, [see Kostogrys R B, Franczyk-Zarow M, Gasior-Glogowska M, Kus E, Jasztal A, Wrobel T P, et al. Anti-atherosclerotic effects of pravastatin in brachiocephalic artery in comparison with en face aorta and aortic roots in ApoE/LDLR−/− mice. Pharmacol Reports 2017; 69:112-8. doi:10.1016/j.pharep.2016.09.014; Tyrankiewicz U, Skorka T, Orzylowska A, Jablonska M, Jasinski K, Jasztal A, et al. Comprehensive MRI for the detection of subtle alterations in diastolic cardiac function in apoE/LDLR−/− mice with advanced atherosclerosis. NMR Biomed 2016; 29:833-40. doi:10.1002/nbm.3524; Mateuszuk L, Jasztal A, Maslak E, Gasior-Glogowska M, Baranska M, Sitek B, et al. Antiatherosclerotic Effects of 1-Methylnicotinamide in Apolipoprotein E/Low-Density Lipoprotein Receptor-Deficient Mice: A Comparison with Nicotinic Acid. J Pharmacol Exp Ther 2016; 356:514-24. doi:10.1124/jpet.115.228643; Wrobel T P, Marzec K M, Chlopicki S, Maślak E, Jasztal A, Franczyk-Żarów M, et al., Effects of Low Carbohydrate High Protein (LCHP) diet on atherosclerotic plaque phenotype in ApoE/LDLR−/− mice: FT-IR and Raman imaging. […] End-diastolic volumes of BCA and LCA were analyzed using ImageJ software (1.46r NIH Bethesda, Md., USA) and scripts written in Matlab (MathWorks, Natick, Mass., USA) (FIG. 1A).

CC(C)=CCC/C(C)=C/CC/C(C)=C/CC/C(C)=C/CC/C(C)=C/CC/C(C)=C/CC/C(C)=C/CC1=C(C)C(=O)c2ccccc2C1=O [MK-7, menaquinone-7]
volume change of BCA after Ach injection (high dose 10 mg/kg b.w./day): 3.12%
volume change of LCA after Ach injection (high dose 10 mg/kg b.w./day): 4.45%
volume change of LCA after Ach injection (low dose 0.03 mg/kg b.w./day, listed as vitamin MK-7, 0.03 mg/kg/day): ~−3% and −3.92%
